The values below come from ChEMBL document CHEMBL1154328, “New inhibitors of the complement system inspired in K76-COOH. A SAR study of filifolinol derivatives through modifications of the C3' position” (Bioorg Med Chem Lett, 2009).

The first assay is described as follows: Inhibition of serum complement system-mediated hemolysis of human RBCs.
Conditions: not given; call rule not given here
For the compound `C[C@H]1CCCC(C)(C)[C@@]12Cc1cc(C(=O)O)ccc1O2`, the IC50 result was “Not Active”.

Still in this assay, the particulars now being: read-out: IC50.
For the compound `CCCN[C@H]1CC[C@H](C)[C@]2(Cc3cc(C(=O)O)ccc3O2)C1(C)C`, the IC50 was 2750 µM. On the same count and under the same terms, the figure for `C[C@@H]1CCC2C(C)(C)[C@H](O)[C@H](O)C[C@]2(C)[C@@]12Cc1c(O)cc(C(=O)O)c(C=O)c1O2` (stereo partly specified) is 570 µM. Still for that read-out and setting: the figure for `COc1ccc(C(=O)O)c2c1C[C@@](C)([C@H]1CC=C(C)CC1)O2` is 680 µM; for `C[C@H]1CC[C@@H](O)C(C)(C)[C@@]12Cc1cc(C(=O)O)ccc1O2` it is 517 µM. For the compound `C=CCO[C@@H]1CC[C@H](C)[C@]2(Cc3cc(C(=O)O)ccc3O2)C1(C)C`, the IC50 amounted to 3080 µM. Same read-out and setting: in the case of `C[C@H]1CC[C@@H](OCC(O)CO)C(C)(C)[C@@]12Cc1cc(C(=O)O)ccc1O2` (stereo partly specified) it was 4720 µM; in that of `C[C@H]1CC[C@H](O)C(C)(C)[C@@]12Cc1cc(C(=O)O)ccc1O2`, 12100 µM. Regarding `C[C@H]1CC[C@@H](OCCO)C(C)(C)[C@@]12Cc1cc(C(=O)O)ccc1O2`, the IC50 was 4400 µM. As to `CCCO[C@@H]1CC[C@H](C)[C@]2(Cc3cc(C(=O)O)ccc3O2)C1(C)C`, the IC50 came out at 548 µM. Same read-out and setting: in the case of `COc1ccc(C(=O)O)c2c1C[C@@](C)([C@@H]1CC[C@](C)(O)[C@H](O)C1)O2` it was 1600 µM. Consider `CC1=CC[C@H]([C@]2(C)Cc3c(O)ccc(C(=O)O)c3O2)CC1`, for which the IC50 turned out to be 2150 µM. Same read-out and setting: the figure for `C[C@H]1CC[C@@](O)(CC(O)CO)C(C)(C)[C@@]12Cc1cc(C(=O)O)ccc1O2` (stereo partly specified) [listing 1 of 2 here] is 480 µM; for `CCCN[C@@H]1CC[C@H](C)[C@]2(Cc3cc(C(=O)O)ccc3O2)C1(C)C` it is 211 µM. The same measure, in the same setting: the figure for `C[C@H]1CC[C@@](O)(CC(O)CO)C(C)(C)[C@@]12Cc1cc(C(=O)O)ccc1O2` (stereo partly specified) [listing 2 of 2 here] is 3290 µM; for `COC(=O)c1ccc2c(c1)C[C@@]1(O2)[C@@H](C)CC[C@@H](O)C1(C)C` [FILIFOLINOL] it is 2000 µM.

Usually IC50 stands for the concentration that gives 50% inhibition.
